“Also recorded” adds a separate entry of the source. Read-outs that look alike come from different tables or passages of the source.
Key:
[1] = tested on: tumor cell Hsp90 complexes (SKBr3 human breast cancer lysate); assay: Hsp90 fluorescence polarization competition assay (GM-cy3B displacement) in SKBr3 cancer-cell lysate; assay type: binding; details: read-out: Affinity for Hsp90 (FP)
Text: The fraction of tracer bound to Hsp90 was correlated to the mP value and plotted against values of competitor concentrations. The inhibitor concentration at which 50% of bound GM was displaced was obtained by fitting the data.

[2] = tested on: K562 cells; assay: Growth inhibition assay (Alamar Blue); assay type: cell-based; details: Homo sapiens, K562, 72 h, read-out: IC50 Growth inhibition
Text: (§1) Having shown that each of the prepared biotinylated molecules retained good affinity for Hsp90, we next evaluated these compounds in two functional read-outs that together measure that the probe has entered a live cancer cell and once inside the cell, has bound to a substantial fraction of oncogenic Hsp90 molecules. Specifically, K562 is a human leukemia cell line dependent on Hsp90 for survival. Thus, in such cells, occupancy of Hsp90’s regulatory pocket by small molecules results in inhibition of its cancer-sheltering properties, leading to cell-growth inhibition associated with degradation of Hsp90-chaperoned onco-proteins. These, such as is the case for Raf-1 in K562 cells, become ubiquitinated and targeted for proteasomal degradation leading to a decrease in their steady-state levels (Figure 2a, Raf-1).
Growth inhibition assay. The effect of compounds on cell growth was evaluated with the Alamar Blue assay. In summary, K562 cells were plated at 20,000 cells/well on Costar 96-well plates. Treatment with the probes added at the indicated concentrations in triplicate wells was performed on the subsequent day and lasted for 72 h. The Alamar Blue reagent resazurin (440 μM stock) was added at the end of the treatment to result in a final concentration of 50 μM. Plates were read 6 h later by using the Analyst GT instrument (Fluorescence intensity mode, excitation 530 nm, emission 580 nm, with 560 nm dichroic mirror). Results were analyzed in SoftMax Pro. The percentage of cell growth inhibition was calculated by comparing fluorescence readings obtained from treated versus control cells, accounting for the initial cell population (time zero). The IC50 was calculated as the drug concentration that inhibits cell growth by 50%.

[3] = biological target: T1, Grp94 (Homo sapiens, UniProt P14625); details: ref Chiosis G, personal communication; cited from earlier work
[4] = tested on: Raf-1 (Hsp90 onco-client) in K562 cells; assay: Raf-1 steady-state levels by Western blot; assay type: cell-based, human; details: for Cancer-cell permeability / uptake: judged from Raf-1 degradation and growth inhibition in K562 cells; for Effect on Raf-1 steady-state levels (Raf-1 degradation): K562 cells, 24 h, probes at 5, 10 and 20 µM
Text: as §1
Western blotting. The K562 cell line was purchased from the American Type Culture Collection (Manassas, VA) and cultured in Roswell Park Memorial Institute (RPMI) supplemented with 10% fetal bovine serum, 1% L-glutamine, 1% penicillin and streptomycin. Cells were plated for 24 h prior to treatment for the indicated times with DMSO (vehicle) or with the indicated compounds. Protein extracts were prepared in 50 mM Tris pH 7.4, 150 mM NaCl and 1% NP-40 lysis buffer. Protein concentrations were measured by using the BCA kit (Pierce) according to the manufacturer's instructions. Protein lysates (50 μg) were resolved by SDS-PAGE, transferred onto nitrocellulose membrane and incubated with an anti-Raf-1 antibody from rabbit (1:500, sc-133, Santa Cruz) or anti-β-actin from mouse (1:2,500, A1978, Sigma-Aldrich). Membranes were then incubated with the corresponding peroxidase-conjugated secondary antibody (1:3,000 dilution) and visualized by the ECL detection reagent (Amersham).

[5] = tested on: Hsp90; assay: Chemical precipitation (affinity purification on streptavidin beads) from K562 cell lysates; design: species or system human; details: high-salt wash, Coomassie stain, 10, 25 and 50 µM
Protocol: Having identified which compounds were capable or not of permeating live cancer cells, we next wanted to determine whether the chain length was optimal to maintain concomitant binding to Hsp90 and streptavidin, so as to allow for isolation and identification of Hsp90/onco-client complexes from cancer cells. For this purpose, K562 lysates (Figure 2b and c) were incubated with the biotinylated ligands and the complexes captured on streptavidin beads. To test for the probe’s selectivity, pull-downs were performed with increasing concentrations of biotinylated derivatives (10, 25 and 50 µM; Figure 2c). Additionally, affinity-purified complexes were washed with high-salt buffer to remove Hsp90-bound co-chaperones and client proteins (Figure 2b and c).
(§2) Chemical precipitation from cell lysates. K562 cells were sonicated in 20 mM HEPES, pH 7.3, 50 mM KCl, 5 mM MgCl2, 20 mM Na2MoO4, and 0.01% NP40 lysis buffer containing added protease inhibitors. Affinity beads were prepared by addition of the biotinylated probes to the streptavidin agarose resin (40 μL) (Thermo Scientific), which was first washed three times with the lysis buffer. […] The protein extract (500 μg) was then added to the probe-bound beads, and samples were incubated at 4 °C overnight. Following five washes with lysis buffer, the protein isolates were subjected to SDS-PAGE.

[6] = tested on: Hsp90 and Hsp90/Raf-1 complexes; assay: Chemical precipitation (affinity purification on streptavidin beads) from live K562 cells; assay type: cell-based, human; details: for Isolation of Hsp90 from live K562 cells (band at 90 kDa, Coomassie): live K562 cells incubated 4 h, then permeabilized, streptavidin beads; for Isolation of Hsp90 in complex with onco-client protein Raf-1: live K562 cells, Coomassie and Raf-1 immunoblot
Protocol: To test for the probes’ ability to isolate Hsp90 in secondary and tertiary complexes, such as those containing onco-client proteins, affinity purifications were also performed from live K562 cancer cells (Figure 2d). In such a case, the biotinylated tool is added to live cells where the compound binds to Hsp90 in an onco-client-bound conformation, locking and preserving the endogenous Hsp90/protein complexes throughout the subsequent experimental steps (i.e., permeabilization). In contrast, when adding a biotinylated tool to cell homogenates, one may encounter two potential limitations. First, due to the dynamic nature of the Hsp90/client protein interactions, the endogenous complexes may be lost during the homogenization process and thus, pull-downs from homogenates may miss important interactors. Second, during homogenization, certain proteins may lose their well-regulated conformation and potentially aggregate. Such misfolded proteins are prone to be captured by chaperones resulting in “false positives” (i.e., nonendogenous Hsp90 client proteins). False positives increase the “background” on the affinity resin, and the higher the background, the poorer the identification of relevant endogenous Hsp90 complexes will be. Therefore, while it is true that following the addition of the biotinylated tool to cells, these are permeabilized or fixed/permeabilized and thus no longer alive, the capture of the oncogenic Hsp90 complexes takes place in the live cell.
Consequently, in live-cell experiments, cells were first incubated with the biotinylated PU-H71 derivatives to trap and maintain the onco-client complexed to Hsp90. Next, cells were ruptured into a physiological buffer containing molybdate. The purpose of this step is to release the proteins from the cell yet maintain the Hsp90/onco-client protein complexes intact. Following capture of these complexes on the streptavidin beads, complexes were applied to a denaturing gel, then probed by both Coomassie stain (Figure 2d, top panel) and immunoblot (Figure 2d, bottom panel Raf-1 blot).
Chemical precipitation from cells. K562 cells were treated with the indicated compounds for 4 h, after which cells were collected and washed three times with PBS. Protein extracts were prepared by sonicating cells in 20 mM HEPES, pH 7.3, 50 mM KCl, 5 mM MgCl2, 20 mM Na2MoO4, 0.01% NP40 lysis buffer. Streptavidin agarose beads (40 μL) (Thermo Scientific) were washed three times with the lysis buffer and added to 500 μg of the total cellular protein extract diluted in lysis buffer to a final volume of 120 μL. Samples were incubated at 4 °C for 1 h, washed five times with the lysis buffer (or high salt buffer containing 1 M NaCl added to the lysis buffer) and applied to SDS-PAGE. Gels were stained with Coomassie blue (BioRad) according to the manufacturer's instructions.

[7] = tested on: Hsp90; assay: Affinity for Hsp90 paralogues: cytosolic Hsp90; assay type: binding; details: paralogue comparison
[8] = biological target: T1, Grp94; assay: Affinity for Hsp90 paralogues: Grp94; assay type: binding; details: paralogue comparison
[9] = tested on: cytosolic Hsp90 versus Grp94; assay: Paralogue selectivity of affinity purification from K562 lysates (Western blot); design: species or system human; details: overnight, probes 50 µM
Protocol: as §2

T1 sequence (P14625 22-803, species assumed): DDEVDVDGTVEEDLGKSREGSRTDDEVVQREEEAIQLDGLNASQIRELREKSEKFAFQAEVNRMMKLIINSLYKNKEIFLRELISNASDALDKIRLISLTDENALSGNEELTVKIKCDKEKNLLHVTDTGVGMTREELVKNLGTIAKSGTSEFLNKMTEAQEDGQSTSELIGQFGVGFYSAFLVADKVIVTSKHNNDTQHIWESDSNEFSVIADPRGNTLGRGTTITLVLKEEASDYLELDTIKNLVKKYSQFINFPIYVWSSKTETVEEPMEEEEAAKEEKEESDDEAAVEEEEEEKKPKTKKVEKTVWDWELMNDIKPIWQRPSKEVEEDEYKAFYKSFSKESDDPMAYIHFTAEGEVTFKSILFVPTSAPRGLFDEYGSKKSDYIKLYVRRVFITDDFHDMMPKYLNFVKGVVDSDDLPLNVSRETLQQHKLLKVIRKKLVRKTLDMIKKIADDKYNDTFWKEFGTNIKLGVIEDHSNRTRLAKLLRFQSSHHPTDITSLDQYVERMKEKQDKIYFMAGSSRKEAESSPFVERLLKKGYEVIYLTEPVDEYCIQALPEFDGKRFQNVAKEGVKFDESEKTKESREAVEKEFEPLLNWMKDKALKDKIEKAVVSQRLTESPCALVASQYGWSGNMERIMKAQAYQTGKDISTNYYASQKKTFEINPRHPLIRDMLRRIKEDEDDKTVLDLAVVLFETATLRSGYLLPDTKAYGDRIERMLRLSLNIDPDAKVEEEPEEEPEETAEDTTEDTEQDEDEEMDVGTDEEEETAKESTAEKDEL

| SMILES | IC50 ([2]; Figure 2a, Alamar Blue) [nM] | Affinity for Grp94 [8] [nM] | EC50 [1] [nM] | IC50 [2] [nM] | Binding to cytosolic and ER Hsp90 paralogues [3] | Cancer-cell permeability / uptake [4] | Isolation of Hsp90 from K562 lysates on streptavidin beads [5] | Effect on Raf-1 steady-state levels (Raf-1 degradation) [4] | Isolation of Hsp90 from live K562 cells (band at 90 kDa, Coomassie) [6] | Isolation of Hsp90 in complex with onco-client protein Raf-1 [6] | Affinity for Hsp90 [7] [nM] | Preference in affinity purification of cytosolic Hsp90 over Grp94 [9] |
| --- | --- | --- | --- | --- | --- | --- | --- | --- | --- | --- | --- | --- |
| CC(C)NCCCn1c(Sc2cc3c(cc2I)OCO3)nc2c(N)ncnc21 [1a, PU-H71] |  |  | 24.5 | 80 | binds equally well to the cytosolic and the ER paralogues |  |  |  |  |  |  |  |
| NCCCn1c(Sc2cc3c(cc2I)OCO3)nc2c(N)ncnc21 [1b] |  |  | 26 |  |  |  |  |  |  |  |  |  |
| Nc1ncnc2c1nc(Sc1cc3c(cc1I)OCO3)n2CCCNCCOCCOCCOCCNC(=O)CCCC[C@@H]1SC[C@@H]2NC(=O)N[C@@H]21 [2a] | 5000 |  |  |  |  | poor cancer-cell permeability | modest probe for affinity purifications |  |  |  |  |  |
| CC(C)N(CCCn1c(Sc2cc3c(cc2I)OCO3)nc2c(N)ncnc21)C(=O)CCCC[C@@H]1SC[C@@H]2NC(=O)N[C@@H]21 [2b] | 2630 |  |  |  |  |  | unable to affinity purify Hsp90 | almost complete Raf-1 degradation | faint band or no band at 90 kDa |  |  |  |
| Nc1ncnc2c1nc(Sc1cc3c(cc1I)OCO3)n2CCCNC(=O)CCCC[C@@H]1SC[C@@H]2NC(=O)N[C@@H]21 [2c] | 250 |  |  |  |  |  | unable to affinity purify Hsp90 | almost complete Raf-1 degradation | faint band or no band at 90 kDa |  |  |  |
| CC(C)N(CCCn1c(Sc2cc3c(cc2I)OCO3)nc2c(N)ncnc21)C(=O)CCCCCNC(=O)CCCC[C@@H]1SC[C@@H]2NC(=O)N[C@@H]21 [2d] | 2190 |  |  |  |  |  |  | almost complete Raf-1 degradation | faint band or no band at 90 kDa |  |  |  |
| Nc1ncnc2c1nc(Sc1cc3c(cc1I)OCO3)n2CCCNC(=O)CCCCCNC(=O)CCCC[C@@H]1SC[C@@H]2NC(=O)N[C@@H]21 [2e] | 1350 |  |  |  |  |  | unable to affinity purify Hsp90 | almost complete Raf-1 degradation | faint band or no band at 90 kDa |  |  |  |

Now from value to compound, other results behind:

| IC50 ([2]; Figure 2a, Alamar Blue) [nM] | Affinity for Grp94 [8] [nM] | SMILES | EC50 [1] [nM] | IC50 [2] [nM] | Binding to cytosolic and ER Hsp90 paralogues [3] | Cancer-cell permeability / uptake [4] | Isolation of Hsp90 from K562 lysates on streptavidin beads [5] | Effect on Raf-1 steady-state levels (Raf-1 degradation) [4] | Isolation of Hsp90 from live K562 cells (band at 90 kDa, Coomassie) [6] | Isolation of Hsp90 in complex with onco-client protein Raf-1 [6] | Affinity for Hsp90 [7] [nM] | Preference in affinity purification of cytosolic Hsp90 over Grp94 [9] |
| --- | --- | --- | --- | --- | --- | --- | --- | --- | --- | --- | --- | --- |
| 4960 | 210 | CC(C)N(CCCn1c(Sc2cc3c(cc2I)OCO3)nc2c(N)ncnc21)C(=O)CCCCCNC(=O)CCCCCNC(=O)CCCC[C@@H]1SC[C@@H]2NC(=O)N[C@@H]21 [2f] |  |  |  |  | isolated substantial amounts of Hsp90 | failed to exhibit such properties; also recorded: to some degree |  | Most efficient | 98 | substantial preference |
| 1130 | 451 | Nc1ncnc2c1nc(Sc1cc3c(cc1I)OCO3)n2CCCNC(=O)CCCCCNC(=O)CCCCCNC(=O)CCCC[C@@H]1SC[C@@H]2NC(=O)N[C@@H]21 [2g] |  |  |  | substantially taken up by the cancer cell; also recorded: good permeability | isolated substantial amounts of Hsp90 | almost complete Raf-1 degradation |  | Most efficient | 45 | substantial preference |
| 7010 | 313 | CC(C)N(CCCn1c(Sc2cc3c(cc2I)OCO3)nc2c(N)ncnc21)C(=O)CCOCCOCCOCCOCCNC(=O)CCCC[C@@H]1SC[C@@H]2NC(=O)N[C@@H]21 [2h] |  |  |  |  | isolated substantial amounts of Hsp90 | failed to exhibit such properties; also recorded: failed to substantially degrade Raf-1 |  | Most efficient | 137 | substantial preference |
| 8590 | 226 | Nc1ncnc2c1nc(Sc1cc3c(cc1I)OCO3)n2CCCNC(=O)CCOCCOCCOCCOCCNC(=O)CCCC[C@@H]1SC[C@@H]2NC(=O)N[C@@H]21 [2i] |  |  |  |  | isolated substantial amounts of Hsp90 | failed to exhibit such properties; also recorded: failed to substantially degrade Raf-1 |  | Most efficient | 83 | substantial preference |

Reference: paper PMC3628991, “Synthesis and evaluation of cell-permeable biotinylated PU-H71 derivatives as tumor Hsp90 probes” (Beilstein Journal of Organic Chemistry, 2013)
